From US6358885B1, “Substituted phenylheterocyclic herbicides” (Mississippi State University, priority 1992, dated 2002)

Assays:
Experiment in all cases: Test B preemergence/postemergence greenhouse plant response rating 0 to 10
barley = format: in vivo, Hordeum vulgare; conditions: 0 to 10 scale
From the text: (§1) Seeds of barley (Hordeum vulgare), barnyardgrass (Echinochloa crus-galli), bedstraw (Galium aparine), blackgrass (Alopecurus myosuroides), […] (Bromus secalinus), chickweed (Stellaria media), cocklebur (Xanthium pensylvanicum), corn (Zea mays), cotton (Gossypium hirsutum), crabgrass (Digitaria spp.), giant foxtail (Setaria faberii), lambsquarters (Chenopodium album), morningglory (Ipomoea hederacea), rape (Brassica napus), rice (Oryza sativa), sorghum (Sorghum bicolor), soybean (Glycine max), sugar beet (Beta vulgaris), velvetleaf (Abutilon theophrasti), wheat (Triticum aestivum), wild buckwheat (Polygonum convolvulus), and wild oat (Avena fatua) and purple nutsedge. (Cyperus rotundus) tubers were planted and treated preemergence with test chemicals dissolved in a non-phytotoxic solvent. At the same time, these crop and weed species were also treated with postemergence applications of test chemicals. Plants ranged in height from two to eighteen cm (one to four leaf stage) for postemergence treatments. Treated plants and controls were maintained in a greenhouse for twelve to sixteen days, after which all species were compared to controls and visually evaluated. […] A dash (-) response means no test result.

barnyardgrass = format: in vivo, Echinochloa crus-galli; conditions: 0 to 10 scale
From the text: as §1

bedstraw = format: in vivo, Galium aparine; conditions: 0 to 10 scale
From the text: as §1

blackgrass = format: in vivo, Alopecurus myosuroides; conditions: 0 to 10 scale
From the text: as §1

cheatgrass = format: in vivo, Bromus secalinus; conditions: 0 to 10 scale
From the text: as §1

chickweed = format: in vivo, Stellaria media; conditions: Rate 200 g/ha, 0 to 10 scale
From the text: as §1

cocklebur = format: in vivo, Xanthium pensylvanicum; conditions: 0 to 10 scale
From the text: as §1

corn = format: in vivo, Zea mays; conditions: 0 to 10 scale
From the text: as §1

cotton = format: in vivo, Gossypium hirsutum; conditions: 0 to 10 scale
From the text: as §1

crabgrass = format: in vivo, Digitaria spp.; conditions: 0 to 10 scale
From the text: as §1

giant foxtail = format: in vivo, Setaria faberii; conditions: 0 to 10 scale
From the text: as §1

lambsquarters = format: in vivo, Chenopodium album; conditions: 0 to 10 scale
From the text: as §1

morningglory = format: in vivo, Ipomoea hederacea; conditions: 0 to 10 scale
From the text: as §1

rape = format: in vivo, Brassica napus; conditions: 0 to 10 scale
From the text: as §1

rice = format: in vivo, Oryza sativa; conditions: 0 to 10 scale
From the text: as §1

sorghum = format: in vivo, Sorghum bicolor; conditions: 0 to 10 scale
From the text: as §1

soybean = format: in vivo, Glycine max; conditions: 0 to 10 scale
From the text: as §1

sugar beet = format: in vivo, Beta vulgaris; conditions: 0 to 10 scale
From the text: as §1

velvetleaf = format: in vivo, Abutilon theophrasti; conditions: 0 to 10 scale
From the text: as §1

wheat = format: in vivo, Triticum aestivum; conditions: 0 to 10 scale
From the text: as §1

wild buckwheat = format: in vivo, Polygonum convolvulus; conditions: 0 to 10 scale
From the text: as §1

wild oat = format: in vivo, Avena fatua; conditions: 0 to 10 scale
From the text: as §1

purple nutsedge = format: in vivo, Cyperus rotundus; conditions: 0 to 10 scale
From the text: as §1

Compound: Clc1ccc(-c2nn3c(c2Cl)CCCC3)c(Cl)c1 [Compound 35]
- Plant response rating, Barley (barley; POSTEMERGENCE, Rate 50 g/ha): 2
- Plant response rating, Barley (barley; POSTEMERGENCE, Rate 200 g/ha): 4
- Plant response rating, Barley (barley; PREEMERGENCE, Rate 50 g/ha): 0
- Plant response rating, Barley (barley; Rate 200 g/ha, PREEMERGENCE): 0
- Plant response rating, Barnyardgrass (barnyardgrass; POSTEMERGENCE, Rate 50 g/ha): 5
- Plant response rating, Barnyardgrass (barnyardgrass; POSTEMERGENCE, Rate 200 g/ha): 9
- Plant response rating, Barnyardgrass (barnyardgrass; PREEMERGENCE, Rate 50 g/ha): 1
- Plant response rating, Barnyardgrass (barnyardgrass; Rate 200 g/ha, PREEMERGENCE): 7
- Plant response rating, Bedstraw (bedstraw; POSTEMERGENCE, Rate 50 g/ha): 7
- Plant response rating, Bedstraw (bedstraw; POSTEMERGENCE, Rate 200 g/ha): 9
- Plant response rating, Bedstraw (bedstraw; PREEMERGENCE, Rate 50 g/ha): 0
- Plant response rating, Bedstraw (bedstraw; Rate 200 g/ha, PREEMERGENCE): 8
- Plant response rating, Blackgrass (blackgrass; POSTEMERGENCE, Rate 50 g/ha): 3
- Plant response rating, Blackgrass (blackgrass; POSTEMERGENCE, Rate 200 g/ha): 4
- Plant response rating, Blackgrass (blackgrass; PREEMERGENCE, Rate 50 g/ha): 0
- Plant response rating, Blackgrass (blackgrass; Rate 200 g/ha, PREEMERGENCE): 4
- Plant response rating, Cheatgrass (cheatgrass; POSTEMERGENCE, Rate 50 g/ha): 3
- Plant response rating, Cheatgrass (cheatgrass; POSTEMERGENCE, Rate 200 g/ha): 5
- Plant response rating, Cheatgrass (cheatgrass; PREEMERGENCE, Rate 50 g/ha): 1
- Plant response rating, Cheatgrass (cheatgrass; Rate 200 g/ha, PREEMERGENCE): 5
- Plant response rating, Chickweed (chickweed; POSTEMERGENCE): 3
- Plant response rating, Chickweed (chickweed; PREEMERGENCE): 9
- Plant response rating, Cocklebur (cocklebur; POSTEMERGENCE, Rate 50 g/ha): 5
- Plant response rating, Cocklebur (cocklebur; POSTEMERGENCE, Rate 200 g/ha): 7
- Plant response rating, Cocklebur (cocklebur; PREEMERGENCE, Rate 50 g/ha): 0
- Plant response rating, Cocklebur (cocklebur; Rate 200 g/ha, PREEMERGENCE): 2
- Plant response rating, Corn (corn; POSTEMERGENCE, Rate 50 g/ha): 4
- Plant response rating, Corn (corn; POSTEMERGENCE, Rate 200 g/ha): 7
- Plant response rating, Corn (corn; PREEMERGENCE, Rate 50 g/ha): 0
- Plant response rating, Corn (corn; Rate 200 g/ha, PREEMERGENCE): 3
- Plant response rating, Cotton (cotton; POSTEMERGENCE, Rate 50 g/ha): 9
- Plant response rating, Cotton (cotton; POSTEMERGENCE, Rate 200 g/ha): 10
- Plant response rating, Cotton (cotton; PREEMERGENCE, Rate 50 g/ha): 0
- Plant response rating, Cotton (cotton; Rate 200 g/ha, PREEMERGENCE): 4
- Plant response rating, Crabgrass (crabgrass; POSTEMERGENCE, Rate 50 g/ha): 3
- Plant response rating, Crabgrass (crabgrass; POSTEMERGENCE, Rate 200 g/ha): 6
- Plant response rating, Crabgrass (crabgrass; PREEMERGENCE, Rate 50 g/ha): 4
- Plant response rating, Crabgrass (crabgrass; Rate 200 g/ha, PREEMERGENCE): 9
- Plant response rating, Giant foxtail (giant foxtail; POSTEMERGENCE, Rate 50 g/ha): 4
- Plant response rating, Giant foxtail (giant foxtail; PREEMERGENCE, Rate 50 g/ha): 2
- Plant response rating, Giant foxtail (giant foxtail; Rate 200 g/ha, POSTEMERGENCE): 7
- Plant response rating, Giant foxtail (giant foxtail; Rate 200 g/ha, PREEMERGENCE): 9
- Plant response rating, Lambsquarter (lambsquarters; POSTEMERGENCE, Rate 50 g/ha): 9
- Plant response rating, Lambsquarter (lambsquarters; PREEMERGENCE, Rate 50 g/ha): 10
- Plant response rating, Lambsquarter (lambsquarters; Rate 200 g/ha, POSTEMERGENCE): 10
- Plant response rating, Lambsquarter (lambsquarters; Rate 200 g/ha, PREEMERGENCE): 10
- Plant response rating, Morningglory (morningglory; POSTEMERGENCE, Rate 50 g/ha): 5
- Plant response rating, Morningglory (morningglory; PREEMERGENCE, Rate 50 g/ha): 0
- Plant response rating, Morningglory (morningglory; Rate 200 g/ha, POSTEMERGENCE): 7
- Plant response rating, Morningglory (morningglory; Rate 200 g/ha, PREEMERGENCE): 2
- Plant response rating, Rape (rape; POSTEMERGENCE, Rate 50 g/ha): 6
- Plant response rating, Rape (rape; PREEMERGENCE, Rate 50 g/ha): 0
- Plant response rating, Rape (rape; Rate 200 g/ha, POSTEMERGENCE): 9
- Plant response rating, Rice (rice; POSTEMERGENCE, Rate 50 g/ha): 5
- Plant response rating, Rice (rice; PREEMERGENCE, Rate 50 g/ha): 0
- Plant response rating, Rice (rice; Rate 200 g/ha, POSTEMERGENCE): 6
- Plant response rating, Rice (rice; Rate 200 g/ha, PREEMERGENCE): 2
- Plant response rating, Sorghum (sorghum; POSTEMERGENCE, Rate 50 g/ha): 5
- Plant response rating, Sorghum (sorghum; PREEMERGENCE, Rate 50 g/ha): 0
- Plant response rating, Sorghum (sorghum; Rate 200 g/ha, POSTEMERGENCE): 6
- Plant response rating, Sorghum (sorghum; Rate 200 g/ha, PREEMERGENCE): 3
- Plant response rating, Soybean (soybean; POSTEMERGENCE, Rate 50 g/ha): 4
- Plant response rating, Soybean (soybean; PREEMERGENCE, Rate 50 g/ha): 0
- Plant response rating, Soybean (soybean; Rate 200 g/ha, POSTEMERGENCE): 5
- Plant response rating, Soybean (soybean; Rate 200 g/ha, PREEMERGENCE): 3
- Plant response rating, Sugar beet (sugar beet; POSTEMERGENCE, Rate 50 g/ha): 9
- Plant response rating, Sugar beet (sugar beet; PREEMERGENCE, Rate 50 g/ha): 0
- Plant response rating, Sugar beet (sugar beet; Rate 200 g/ha, POSTEMERGENCE): 10
- Plant response rating, Sugar beet (sugar beet; Rate 200 g/ha, PREEMERGENCE): 4
- Plant response rating, Velvetleaf (velvetleaf; POSTEMERGENCE, Rate 50 g/ha): 8
- Plant response rating, Velvetleaf (velvetleaf; PREEMERGENCE, Rate 50 g/ha): 2
- Plant response rating, Velvetleaf (velvetleaf; Rate 200 g/ha, POSTEMERGENCE): 10
- Plant response rating, Velvetleaf (velvetleaf; Rate 200 g/ha, PREEMERGENCE): 10
- Plant response rating, Wheat (wheat; POSTEMERGENCE, Rate 50 g/ha): 2
- Plant response rating, Wheat (wheat; PREEMERGENCE, Rate 50 g/ha): 0
- Plant response rating, Wheat (wheat; Rate 200 g/ha, POSTEMERGENCE): 5
- Plant response rating, Wheat (wheat; Rate 200 g/ha, PREEMERGENCE): 7
- Plant response rating, Wild buckwheat (wild buckwheat; POSTEMERGENCE, Rate 50 g/ha): 6
- Plant response rating, Wild buckwheat (wild buckwheat; PREEMERGENCE, Rate 50 g/ha): 0
- Plant response rating, Wild buckwheat (wild buckwheat; Rate 200 g/ha, POSTEMERGENCE): 10
- Plant response rating, Wild buckwheat (wild buckwheat; Rate 200 g/ha, PREEMERGENCE): 1
- Plant response rating, Wild oat (wild oat; POSTEMERGENCE, Rate 50 g/ha): 3
- Plant response rating, Wild oat (wild oat; PREEMERGENCE, Rate 50 g/ha): 0
- Plant response rating, Wild oat (wild oat; Rate 200 g/ha, POSTEMERGENCE): 4
- Plant response rating, Nutsedge (purple nutsedge; POSTEMERGENCE, Rate 50 g/ha): 1
- Plant response rating, Nutsedge (purple nutsedge; PREEMERGENCE, Rate 50 g/ha): 0
- Plant response rating, Nutsedge (purple nutsedge; Rate 200 g/ha, POSTEMERGENCE): 3
- Plant response rating, Nutsedge (purple nutsedge; Rate 200 g/ha, PREEMERGENCE): 2
